Experimental data as given in publication PMC6717862 (Drug Design, Development and Therapy, 2019).

Columns and labels:
[1] = hypoxia vs normoxia; cited from earlier work
EGFR = EGFR (Homo sapiens, UniProt P00533); experiment: In vitro enzymatic activity assay; type: biochemical; conditions: read-out: EGFR inhibition%, inhibition percentage at 1.0 μM
Sequence of EGFR (P00533 25-1210): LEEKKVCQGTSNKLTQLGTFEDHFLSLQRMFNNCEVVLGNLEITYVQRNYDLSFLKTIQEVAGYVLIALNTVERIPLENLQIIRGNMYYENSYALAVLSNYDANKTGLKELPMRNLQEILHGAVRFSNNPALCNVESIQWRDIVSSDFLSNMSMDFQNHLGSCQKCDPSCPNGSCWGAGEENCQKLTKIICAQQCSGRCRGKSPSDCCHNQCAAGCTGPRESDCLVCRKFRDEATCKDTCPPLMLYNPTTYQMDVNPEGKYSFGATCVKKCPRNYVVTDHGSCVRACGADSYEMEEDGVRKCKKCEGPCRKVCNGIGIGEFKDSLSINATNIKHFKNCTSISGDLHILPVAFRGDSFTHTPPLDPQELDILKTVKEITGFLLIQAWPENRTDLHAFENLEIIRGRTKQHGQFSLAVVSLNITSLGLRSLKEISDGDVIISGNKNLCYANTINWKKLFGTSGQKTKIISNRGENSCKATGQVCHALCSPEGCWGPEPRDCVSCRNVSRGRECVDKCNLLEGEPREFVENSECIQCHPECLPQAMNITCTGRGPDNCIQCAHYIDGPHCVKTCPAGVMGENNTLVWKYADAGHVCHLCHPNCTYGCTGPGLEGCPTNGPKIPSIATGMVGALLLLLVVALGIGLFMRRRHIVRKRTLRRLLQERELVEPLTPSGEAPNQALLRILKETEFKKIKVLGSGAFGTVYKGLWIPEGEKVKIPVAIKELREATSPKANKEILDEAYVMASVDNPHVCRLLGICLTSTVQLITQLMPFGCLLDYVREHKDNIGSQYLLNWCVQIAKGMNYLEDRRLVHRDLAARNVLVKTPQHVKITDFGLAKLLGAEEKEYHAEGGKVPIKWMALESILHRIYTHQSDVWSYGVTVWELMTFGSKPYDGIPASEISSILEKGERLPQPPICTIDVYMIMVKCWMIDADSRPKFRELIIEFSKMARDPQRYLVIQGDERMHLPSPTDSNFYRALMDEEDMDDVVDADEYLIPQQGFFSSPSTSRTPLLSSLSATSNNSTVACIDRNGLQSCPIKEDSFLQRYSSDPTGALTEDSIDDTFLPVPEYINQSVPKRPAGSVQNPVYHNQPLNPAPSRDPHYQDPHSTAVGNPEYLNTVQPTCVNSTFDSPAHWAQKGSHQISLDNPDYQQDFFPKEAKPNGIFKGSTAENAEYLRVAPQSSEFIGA

| inhibition at 1 µM (EGFR) | Structure (SMILES) | fold more effective in carcinoma hypoxia than in normoxia [1] |
| --- | --- | --- |
| – | Cn1c(COP(=O)(NCCBr)NCCBr)cnc1[N+](=O)[O-] [TH-302] | 270 fold |
| < 50% | COc1cc2c(Nc3ccc(OCCn4ccnc4[N+](=O)[O-])cc3)ncnc2cc1OCCCN1CCOCC1 [Compound 16d, 6-Methoxy-7-(3-morpholinopropoxy)-N-(4-(2-(2-nitro-1H-imidazol-1-yl)ethoxy)phenyl)quinazolin-4-amine] | – |
| < 50% | COc1cc2ncnc(Nc3ccc(OCCn4ccnc4[N+](=O)[O-])cc3)c2cc1OCCCN1CCOCC1 [Compound 16l, 7-Methoxy-6-(3-morpholinopropoxy)-N-(4-(2-(2-nitro-1H-imidazol-1-yl)ethoxy)phenyl)quinazolin-4-amine] | – |
| < 50% | COCCOc1cc2ncnc(Nc3ccc(OCCn4ccnc4[N+](=O)[O-])cc3)c2cc1OCCOC [Compound 16h, 6,7-Bis(2-methoxyethoxy)-N-(4-(2-(2-nitro-1H-imidazol-1-yl)ethoxy)phenyl)quinazolin-4-amine] | – |
